Reference: US11530186B2, “Inhibitors for the β-catenin / T-cell factor protein-protein interaction” (H. LEE MOFFITT CANCER CENTER AND RESEARCH INSTITUTE, INC., priority 2018, dated 2022)
Like-named read-outs stand apart in the source and are kept apart here.

Target: T1, β-catenin/Tcf protein-protein interaction (Homo sapiens, UniProt P35222)
T1 construct: Wild-type β-catenin (residues 138-781) were cloned into a pET-28b vector; 6×histidine (C); made in house; host or cells: E. coli BL21 DE3
T1 sequence (P35222 138-781): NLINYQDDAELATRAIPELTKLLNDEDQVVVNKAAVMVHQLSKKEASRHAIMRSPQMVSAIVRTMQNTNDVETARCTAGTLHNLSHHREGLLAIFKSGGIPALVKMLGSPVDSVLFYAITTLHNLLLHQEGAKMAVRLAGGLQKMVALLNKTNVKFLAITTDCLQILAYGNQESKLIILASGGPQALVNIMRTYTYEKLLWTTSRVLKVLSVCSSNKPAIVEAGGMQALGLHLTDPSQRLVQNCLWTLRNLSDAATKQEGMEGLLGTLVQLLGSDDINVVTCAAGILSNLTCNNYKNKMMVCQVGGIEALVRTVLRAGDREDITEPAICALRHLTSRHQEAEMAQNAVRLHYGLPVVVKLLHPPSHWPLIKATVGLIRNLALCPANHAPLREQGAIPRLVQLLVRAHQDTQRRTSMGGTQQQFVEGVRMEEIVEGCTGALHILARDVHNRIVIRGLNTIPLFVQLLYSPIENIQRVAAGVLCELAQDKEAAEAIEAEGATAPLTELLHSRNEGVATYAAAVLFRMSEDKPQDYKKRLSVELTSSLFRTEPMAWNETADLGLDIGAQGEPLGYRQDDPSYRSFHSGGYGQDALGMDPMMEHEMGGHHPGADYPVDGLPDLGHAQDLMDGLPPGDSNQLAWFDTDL
Experiment: FP competitive inhibition assay
Type: binding
Procedure: Protein Expression and Purification. Wild-type β-catenin (residues 138-781) were cloned into a pET-28b vector carrying a C-terminal 6×histidine (Novagen) and transformed into E. coli BL21 DE3 (Novagen). Cells were cultured in LB medium with 30 μg/mL kanamycin until the OD600 was approximately 0.8, and then protein expression was induced with 400 μM of IPTG at 20° C. overnight. Cells were lysed by sonication. The proteins were purified by Ni-NTA affinity chromatography (30210, Qiagen) and dialyzed against a buffer containing 20 mM of Tris (pH 8.8), 100 mM NaCl, 10% glycerol, and 3 mM DTT. The purity of β-catenin was set to >95% as determined by SDS-PAGE gel analysis. Native non-denaturing gel electrophoresis experiment and the thermal-shift assay on an iCycler iQ Real Time Detection System (Bio-Rad) were performed for each purified protein. In the thermal shift assay, protein unfolding was evaluated through measuring the fluorescence changes of fluorescent dye Sypro Orange with purified β-catenin proteins. A temperature increment of 1° C./min was applied to monitor protein stability and detect protein aggregation. CD spectra were measured on a J-815 spectropolarimeter (Jasco). All spectra were recorded using a 1 mm path-length quartz cell. The CD spectra were averaged over three scans, and the wavelength was scanned from 260 to 190 nm in step of 1 nm. All spectra were recorded at room temperature, and the baseline was corrected by subtracting the CD spectra of a blank control containing all of the substances except protein. Samples were prepared at a concentration around 1-5 μM in a buffer of 10 mM potassium phosphate and 100 mM potassium fluoride at pH 7.0 to ensure that the transmission of light through the sample was not restricted. All proteins were stable, and no aggregation was observed under storage or assay conditions. Proteins were aliquoted and stored at −80° C. C-terminally fluorescein-labeled human Tcf4 (residues 7-51) was synthesized and HPLC purified with purity >95%. The structures were validated by LC/MS (liquid chromatography/mass spectrometry).
FP Assays. The procedures for the FP competitive inhibition assays have been described previously (Zhang, M.; Huang, Z.; Yu, B.; Ji, H. New homogeneous high-throughput assays for inhibitors of β-catenin/Tcf protein-protein interactions Anal. Biochem. 2012, 424, 57-63; Zhang, M.; Catrow, J. L.; Ji, H. High-throughput selectivity assays for small-molecule inhibitors of β-catenin/T-cell factor protein-protein interactions. ACS Med. Chem. Lett. 2013, 4, 306-311). Briefly, all of the tested compounds were prepared as 10 mM DMSO stocks. In the primary screen, the concentrations of the compounds and DMSO were set to 50 μM and 1% (v/v). Only the compounds which FP signal decreases were greater than 50% in the single-point β-catenin/Tcf assay were evaluated by counter screen. […] In the FP competitive inhibition assay, 10 nM human β-catenin and 2.5 nM of C-terminally fluorescein-labeled human Tcf4 were incubated in an assay buffer of 137 mM NaCl, 2.7 mM KCl, 10 mM Na2HPO4, 2 mM KH2PO4, 100 μg/mL of bovine γ-globulin, and 0.01% Triton-X100 for 15 min at 4° C. Bovine γ-globulin and Triton-X100 were included in the assay buffer to decrease the likelihood of compound acting by aggregate formation. Different concentrations of the tested compounds in the assay buffer were added to each test plate to make a final volume of 100 μL. Each assay plate was covered black and gently mixed on an orbital shaker at 4° C. for 1.5 h to reach equilibrium before the polarization values were read. The IC50 value was determined by nonlinear least-square analysis of GraphPad Prism 5.0. The Ki values were derived (Nikolovska-Coleska, Z.; Wang, R.; Fang, X.; Pan, H.; Tomita, Y.; Li, P.; Roller, P. P.; Krajewski, K.; Saito, N. G.; Stuckey, J. A.; Wang, S. Development and optimization of a binding assay for the XIAP BIR3 domain using fluorescence polarization. Anal. Biochem. 2004, 332, 261-273). […]

[1] = Assay 1, mean ± SD (n = 3), read-out: Ki ± SD, Assay 1
[2] = Assay 2, mean ± SD (n = 3), read-out: Ki ± SD, Assay 2

SMILES: O=C(O)c1cccc(CCc2nn[nH]n2)c1 [Compound 1, 3-(2-(2H-tetrazol-5-yl)ethyl)benzoic acid]
- Ki [1]: 990 ± 36 µM

SMILES: Cc1cn(CCc2nn[nH]n2)c2ccccc12 [Compound 2, 1-(2-(2H-tetrazol-5-yl)ethyl)-3-methyl-1H-indole]
- Ki [1]: 348 ± 1.3 µM
- Ki [2]: 780 ± 100 µM

SMILES: Cc1c(C)n(CCc2nn[nH]n2)c2ccccc12 [Compound 3, 1-(2-(2H-tetrazol-5-yl)ethyl)-2,3-dimethyl-1H-indole]
- Ki [1]: 250 ± 1.2 µM

SMILES: O=C(O)c1ccc2c(ccn2CCc2nn[nH]n2)c1 [Compound 4, 1-(2-(2H-tetrazol-5-yl)ethyl)-1H-indole-5-carboxylic acid]
- Ki [1]: 550 ± 56 µM

SMILES: O=C(O)c1ccc2c(c1)c(CCc1ccccc1)cn2CCc1nn[nH]n1 [Compound 5, 1-(2-(2H-tetrazol-5-yl)ethyl)-3-phenethyl-1H-indole-5-carboxylic acid]
- Ki [1]: 62 ± 12 µM

SMILES: O=C(O)c1ccc2c(c1)c(CCc1ccc(Cl)cc1)cn2CCc1nn[nH]n1 [Compound 6, 1-(2-(2H-tetrazol-5-yl)ethyl)-3-(4-chlorophenethyl)-1H-indole-5-carboxylic acid]
- Ki [1]: 26 ± 2.3 µM
- Ki [2]: 19 ± 2.5 µM

SMILES: Cc1ccc(CCc2cn(CCc3nn[nH]n3)c3ccc(C(=O)O)cc23)cc1 [Compound 7, 1-(2-(2H-tetrazol-5-yl)ethyl)-3-(4-methylphenethyl)-1H-indole-5-carboxylic acid]
- Ki [1]: 27 ± 4 µM

SMILES: COc1ccc(CCc2cn(CCc3nn[nH]n3)c3ccc(C(=O)O)cc23)cc1 [Compound 8]
- Ki [1]: 78 ± 10 µM

SMILES: O=C(O)c1ccc2c(c1)c(CCc1ccc(C(F)(F)F)cc1)cn2CCc1nn[nH]n1 [Compound 9, 1-(2-(2H-tetrazol-5-yl)ethyl)-3-(4-(trifluoromethyl)phenethyl)-1H-indole-5-carboxylic acid]
- Ki [1]: 31 ± 5.9 µM

SMILES: O=C(O)c1ccc2c(c1)c(CCc1ccc(OC(F)(F)F)cc1)cn2CCc1nn[nH]n1 [Compound 10, 1-(2-(2H-tetrazol-5-yl)ethyl)-3-(4-(trifluoromethoxy)phenethyl)-1H-indole-5-carboxylic acid]
- Ki [1]: 22 ± 3.1 µM

SMILES: O=C(O)c1ccc2c(c1)c(CCc1cccc(Cl)c1)cn2CCc1nn[nH]n1 [Compound 11, 1-(2-(2H-tetrazol-5-yl)ethyl)-3-(3-chlorophenethyl)-1H-indole-5-carboxylic acid]
- Ki [1]: 27 ± 4 µM
- Ki [2]: 12 ± 2.2 µM

SMILES: O=C(O)c1ccc2c(c1)c(CCc1ccc(Cl)c(Cl)c1)cn2CCc1nn[nH]n1 [Compound 12, 1-(2-(2H-tetrazol-5-yl)ethyl)-3-(3,4-dichlorophenethyl)-1H-indole-5-carboxylic acid]
- Ki [1]: 6.6 ± 0.44 µM
- Ki [2]: 41 ± 1.5 µM

SMILES: O=C(O)c1ccc2c(c1)c(CCc1ccc3ccccc3c1)cn2CCc1nn[nH]n1 [Compound 13, 1-(2-(2H-tetrazol-5-yl)ethyl)-3-(2-(naphthalen-2-yl)ethyl)-1H-indole-5-carboxylic acid]
- Ki [1]: 6.5 ± 1 µM

SMILES: O=C(O)c1ccc2c(c1)c(CCc1cccc3ccccc13)cn2CCc1nn[nH]n1 [Compound 14, 1-(2-(2H-tetrazol-5-yl)ethyl)-3-(2-(naphthalen-1-yl)ethyl)-1H-indole-5-carboxylic acid]
- Ki [1]: 4.6 ± 0.36 µM
- Ki [2]: 3.5 ± 0.71 µM

SMILES: O=C(O)c1ccc2c(c1)c(CCc1nccs1)cn2CCc1nn[nH]n1 [Compound 15, 1-(2-(2H-tetrazol-5-yl)ethyl)-3-(2-(thiazol-2-yl)ethyl)-1H-indole-5-carboxylic acid]
- Ki [1]: 29 ± 1.5 µM
- Ki [2]: > 51 µM

SMILES: O=C(O)c1ccc2c(c1)c(CCc1ccncc1)cn2CCc1nn[nH]n1 [Compound 16, 1-(2-(2H-tetrazol-5-yl)ethyl)-3-(2-(pyridin-4-yl)ethyl)-1H-indole-5-carboxylic acid]
- Ki [1]: 18 ± 1.6 µM
- Ki [2]: 18 ± 0.67 µM

SMILES: Cc1ccc(CCc2cn(CCc3nn[nH]n3)c3ccc(C(=O)O)cc23)nc1 [Compound 17, 1-(2-(2H-tetrazol-5-yl)ethyl)-3-(2-(5-methylpyridin-2-yl)ethyl)-1H-indole-5-carboxylic acid]
- Ki [1]: 32 ± 3.9 µM

SMILES: O=C(O)c1ccc2c(c1)c(CCc1ccc(-c3ccccc3)cc1)cn2CCc1nn[nH]n1 [Compound 18, 1-(2-(2H-tetrazol-5-yl)ethyl)-3-(2-([1,1′-biphenyl]-4-yl)ethyl)-1H-indole-5-carboxylic acid]
- Ki [1]: 1.1 ± 0.12 µM
- Ki [2]: 1.6 ± 0.23 µM

SMILES: O=C(O)c1ccc2c(c1)c(CCc1ccc(N3CCOCC3)cc1)cn2CCc1nn[nH]n1 [Compound 19, 1-(2-(2H-tetrazol-5-yl)ethyl)-3-(4-morpholinophenethyl)-1H-indole-5-carboxylic acid]
- Ki [1]: > 51 µM

SMILES: O=C(O)c1ccc2c(c1)c(CCC1CCOCC1)cn2CCc1nn[nH]n1 [Compound 21, 1-(2-(2H-tetrazol-5-yl)ethyl)-3-(2-(tetrahydro-2H-pyran-4-yl)ethyl)-1H-indole-5-carboxylic acid]
- Ki [1]: 6.6 ± 0.28 µM
- Ki [2]: 7.6 ± 0.65 µM
- Ki (Assay 3, mean ± SD (n = 3), read-out: Ki ± SD, Assay 3): 10 ± 0.95 µM
- Ki (Assay 4, mean ± SD (n = 3), read-out: Ki ± SD, Assay 4): 5.7 ± 1.1 µM

SMILES: O=C(O)c1ccc2c(c1)c(CCc1ccc3c(c1)OCCO3)cn2CCc1nn[nH]n1 [Compound 22, 1-(2-(2H-tetrazol-5-yl)ethyl)-3-(2-(2,3-dihydrobenzo[b][1,4]dioxin-6-yl)ethyl)-1H-indole-5-carboxylic acid]
- Ki [1]: 35 ± 1.2 µM

SMILES: O=C(O)CCn1cc(CCc2ccc(Cl)cc2)c2cc(C(=O)O)ccc21 [Compound 23, 1-(2-carboxyethyl)-3-(4-chlorophenethyl)-1H-indole-5-carboxylic acid]
- Ki [1]: 94 ± 9.6 µM

SMILES: Cc1ccc(CCc2cn(CCC(=O)O)c3ccc(C(=O)O)cc23)cc1 [Compound 24, 1-(2-carboxyethyl)-3-(4-methylphenethyl)-1H-indole-5-carboxylic acid]
- Ki [1]: 77 ± 4.5 µM

SMILES: O=C(O)c1ccc2c(c1)c(CCc1ccccc1)c(CCc1nc3ccccc3s1)n2CCc1nn[nH]n1 [Compound 25, 1-(2-(2H-tetrazol-5-yl)ethyl)-2-(2-(benzo[d]thiazol-2-yl)ethyl)-3-phenethyl-1H-indole-5-carboxylic acid]
- Ki [1]: 11 ± 3.9 µM
- Ki [2]: 4.1 ± 0.88 µM

SMILES: O=C(O)c1ccc2c(c1)c(CCc1ccc(F)cc1)c(CCc1nc3ccccc3s1)n2CCc1nn[nH]n1 [Compound 26, 1-(2-(2H-tetrazol-5-yl)ethyl)-2-(2-(benzo[d]thiazol-2-yl)ethyl)-3-(4-fluorophenethyl)-1H-indole-5-carboxylic acid]
- Ki [1]: 6.7 ± 1.1 µM
- Ki [2]: 2.7 ± 0.54 µM
